In patent publication US10307413B2, “Tetrahydro- and dihydro-isoquinoline PRMT5 inhibitors and uses thereof” (Epizyme, Inc., priority 2013, dated 2019):
pEC50: −log10 of the molar value.

Experiments:
[1] = system: Z-138 cell line; assay: Z-138 Proliferation Assay (Cell Titer Glo, 5 days); format: cell-based; conditions: Homo sapiens, 120 h; Z-138 cells, 5 days; read-out: Proliferation EC50
Source text: RPMI/Glutamax medium, penicillin-streptomycin, heat inactivated fetal bovine serum were purchased from Life Technologies, Grand Island, N.Y., USA. V-bottom polypropylene 384-well plates were purchased from Greiner Bio-One, Monroe, N.C., USA. Cell culture 384-well white opaque plates were purchased from Perkin Elmer, Waltham, Mass., USA. Cell-Titer Glo® was purchased from Promega Corporation, Madison, Wis., USA. SpectraMax M5 plate reader was purchased from Molecular Devices LLC, Sunnyvale, Calif., USA.
A compound source plate was prepared by performing triplicate nine-point 3-fold serial dilutions in DMSO, beginning at 10 mM (final top concentration of compound in the assay was 20 μM and the DMSO was 0.2%). A 100 nL aliquot from the compound stock plate was added to its respective well in the cell plate. […] After addition of compounds, assay plates were incubated for 5 days at 37° C., 5% CO2, relative humidity >90%.
Cell viability was measured by quantitation of ATP present in the cell cultures, adding […] of Cell Titer Glo® reagent to the cell plates. Luminescence was read in the SpectraMax M5 microplate reader. The concentration of compound inhibiting cell viability by 50% was determined using a 4-parametric fit of the normalized dose response curves.

[2] = system: symmetric di-methyl arginine in Z-138 cells; assay: Z-138 Methylation Assay (In Cell Western for symmetric di-methyl arginine and DNA content); format: cell-based; conditions: Homo sapiens, read-out: ICW EC50
Source text: [formula] [formula] Where top and bottom are the normally allowed to float, but may be fixed at 100 or 0 respectively in a 3-parameter fit. The Hill Coefficient normally allowed to float but may also be fixed at 1 in a 3-parameter fit. Y is the % inhibition and X is the compound concentration.
RPMI/Glutamax medium, penicillin-streptomycin, heat inactivated fetal bovine serum, and D-PBS were purchased from Life Technologies, Grand Island, N.Y., USA. Odyssey blocking buffer, 800CW goat anti-rabbit IgG (H+L) antibody, and Licor Odyssey infrared scanner were purchased from Licor Biosciences, Lincoln, Nebr., USA. Symmetric di-methyl arginine antibody was purchased from EMD Millipore, Billerica, Mass., USA. 16% Paraformaldehyde was purchased from Electron Microscopy Sciences, Hatfield, Pa., USA.
Cell Treatment, in Cell Western (ICW) for Detection of Symmetric Di-Methyl Arginine and DNA Content.
Z-138 cells were seeded in assay medium at a concentration of 50,000 cells per mL to a 384-well cell culture plate with 50 μL per well. Compound (100 nL) from 384 well source plates was added directly to 384 well cell plate. Plates were incubated at 37° C., 5% CO2 for 96 hours. […] Plates were incubated at room temperature for 30 minutes then incubated at 37° C., 5% CO2 for 5 hours. After the incubation, 40 μL per well of 8% paraformaldehyde in PBS (16% paraformaldahyde was diluted to 8% in PBS) was added to each plate and incubated for 30 minutes. […] Next 30 μL per well of Odyssey blocking buffer were added to each plate and incubated 1 hour at room temperature. Blocking buffer was removed and 20 μL per well of primary antibody was added (symmetric di-methyl arginine diluted 1:100 in Odyssey buffer with 0.1% Tween 20 (v/v)) and plates were incubated overnight (16 hours) at 4° C. Plates were washed 5 times with 100 μL per well of wash buffer. Next 20 μL per well of secondary antibody was added (1:200 800CW goat anti-rabbit IgG (H+L) antibody, 1:1000 DRAQ5 (Biostatus limited) in Odyssey buffer with 0.1% Tween 20 (v/v)) and incubated for 1 hour at room temperature. The plates were washed 5 times with 100 μL per well wash buffer then 1 time with 100 μL per well of water. Plates were allowed to dry at room temperature then imaged on the Licor Odyssey machine which measures integrated intensity at 700 nm and 800 nm wavelengths. Both 700 and 800 channels were scanned.
First, the ratio for each well was determined by:
Each plate included fourteen control wells of DMSO only treatment (minimum inhibition) as well as fourteen control wells for maximum inhibition treated with 3 μM of a reference compound (Background wells). The average of the ratio values for each control type was calculated and used to determine the percent inhibition for each test well in the plate. Reference compound was serially diluted three-fold in DMSO for a total of nine test concentrations, beginning at 3 μM. Percent inhibition was determined and IC50 curves were generated using triplicate wells per concentration of compound. Percent Inhibition=100−

| SMILES | pEC50 [1] | pEC50 [2] |
| --- | --- | --- |
| O=C(NCC(O)CN1CCc2ccccc2C1)c1cccc(CC2CCOCC2)c1 (stereo not drawn) [Compound 59] | 6.00 to 7.00 | > 7.00 |
| O=C(NCC(O)CN1CCc2ccccc2C1)c1cccc(NC2CCCOC2)c1 (stereo not drawn) [Compound 60] | 5.00 to 6.00 | 6.00 to 7.00 |
| O=C(NCC(O)CN1CCc2ccccc2C1)c1ccnc(NC2CCOCC2)n1 (stereo not drawn) [Compound 62] | 4.30 to 5.00 | 6.00 to 7.00 |
| O=C(NCC(O)CN1CCc2ccccc2C1)c1cc(NC2CCOCC2)ncn1 (stereo not drawn) [Compound 63] | 6.00 to 7.00 | > 7.00 |
| O=C(NCC(O)CN1CCc2ccccc2C1)c1cc(Cl)cc(NC2CCOCC2)c1 (stereo not drawn) [Compound 64] | 5.00 to 6.00 | 6.00 to 7.00 |
| O=C(NCC(O)CN1CCc2ccccc2C1)c1ccc(F)c(NC2CCOCC2)c1 (stereo not drawn) [Compound 65] | 5.00 to 6.00 | > 7.00 |
| O=C(NCC(O)CN1CCc2ccccc2C1)c1ccc(NC2CCOCC2)cc1 (stereo not drawn) [Compound 66] | 5.00 to 6.00 | 6.00 to 7.00 |
| COc1ccc(C(=O)NCC(O)CN2CCc3ccccc3C2)cc1NC1CCOCC1 (stereo not drawn) [Compound 67] | 4.30 to 5.00 | 6.00 to 7.00 |
| O=C(NCC(O)CN1CCc2ccccc2C1)c1ccc2ncccc2c1 (stereo not drawn) [Compound 68] | 5.00 to 6.00 | > 7.00 |
| COCCCNc1cccc(C(=O)NCC(O)CN2CCc3ccccc3C2)c1 (stereo not drawn) [Compound 69] | < 4.70 | 5.00 to 6.00 |
| CN(CC(O)CN1CCc2ccccc2C1)C(=O)c1cccc(NC2CCOCC2)c1 (stereo not drawn) [Compound 71] | 5.00 to 6.00 | 6.00 to 7.00 |
| O=C(NCC(O)CN1CCc2ccccc2C1)c1cccc(NC2CCOCC2)n1 (stereo not drawn) [Compound 73] | 5.00 to 6.00 | > 7.00 |
| O=C(NCC(O)CN1CCc2ccccc2C1)c1ccnc(NC2CCOCC2)c1 (stereo not drawn) [Compound 74] | 6.00 to 7.00 | > 7.00 |
| COc1ccc(NC2CCOCC2)cc1C(=O)NCC(O)CN1CCc2ccccc2C1 (stereo not drawn) [Compound 77] | 5.00 to 6.00 | 6.00 to 7.00 |
| O=C(NCC(O)CN1CCc2ccccc2C1)c1cc(F)cc(NC2CCOCC2)c1 (stereo not drawn) [Compound 78] | 6.00 to 7.00 | > 7.00 |
| O=C(NCC(O)CN1CCc2ccccc2C1)c1cccc(NC2CCOCC2)c1F (stereo not drawn) [Compound 79] | 6.00 to 7.00 | > 7.00 |
| O=C(NC[C@H](O)CN1CCc2ccccc2C1)c1cccc(NC2CCOC2)c1 (stereo partly drawn) [Compound 80] | 6.00 to 7.00 | > 7.00 |
| O=C(NC[C@@H](O)CN1CCc2ccccc2C1)c1cccc(NC2CCOC2)c1 (stereo partly drawn) [Compound 81] | 5.00 to 6.00 | 6.00 to 7.00 |
| O=C(NC[C@H](O)CN1CCc2ccccc2C1)c1cccc(OC2CCOCC2)c1 [Compound 82] | 6.00 to 7.00 | > 7.00 |
| Cc1ccc2cc(C(=O)NCC(O)CN3CCc4ccccc4C3)ccc2n1 (stereo not drawn) [Compound 84, N-(3-(3,4-dihydroisoquinolin-2(1H)-yl)-2-hydroxypropyl)-2-methylquinoline-6-carboxamide] | 5.00 to 6.00 | > 7.00 |
| O=C(NCC(O)CN1CCc2ccccc2C1)c1ccc2nccnc2c1 (stereo not drawn) [Compound 85] | 4.30 to 5.00 | 6.00 to 7.00 |
| O=C(NCC(O)CN1CCc2ccccc2C1)c1ccc2c(c1)OCCN2 (stereo not drawn) [Compound 88] | < 4.70 | 6.00 to 7.00 |
| O=C1COc2cc(C(=O)NCC(O)CN3CCc4ccccc4C3)ccc2N1 (stereo not drawn) [Compound 89] | < 4.70 | 6.00 to 7.00 |
| CCN1CCN(Cc2cccc(C(=O)NCC(O)CN3CCc4ccccc4C3)c2)CC1 (stereo not drawn) [Compound 90] | 4.30 to 5.00 | 6.00 to 7.00 |
| CS(=O)(=O)N1CCN(Cc2cccc(C(=O)NCC(O)CN3CCc4ccccc4C3)c2)CC1 (stereo not drawn) [Compound 91] | 5.00 to 6.00 | > 7.00 |
| O=C(NCC(O)CN1CCc2ccccc2C1)c1cccc(CN2CCN(CC(F)(F)F)CC2)c1 (stereo not drawn) [Compound 92] | 5.00 to 6.00 | > 7.00 |

| SMILES | pEC50 [1] | pEC50 [2] |
| --- | --- | --- |
| O=C(NCC(O)CN1CCc2ccccc2C1)c1cccc(NC2CCNC2)c1 (stereo not drawn) [Compound 93] | < 4.70 | 5.00 to 6.00 |
| O=C(NCC(O)CN1CCc2ccccc2C1)c1cccc(NC2CCNCC2)c1 (stereo not drawn) [Compound 94] | 4.30 to 5.00 | 6.00 to 7.00 |
| Cc1ccc(NC2CCOCC2)cc1C(=O)NCC(O)CN1CCc2ccccc2C1 (stereo not drawn) [Compound 95] | 5.00 to 6.00 | 6.00 to 7.00 |
| Cc1ccc(NC2CCOC2)cc1C(=O)NCC(O)CN1CCc2ccccc2C1 (stereo not drawn) [Compound 96] | 5.00 to 6.00 | > 7.00 |
| Cc1ccc(NC2COC2)cc1C(=O)NCC(O)CN1CCc2ccccc2C1 (stereo not drawn) [Compound 97] | 5.00 to 6.00 | > 7.00 |
| O=C(NCC(O)CN1CCc2ccccc2C1)c1cccc(NC2CCOCC2O)c1 (stereo not drawn) [Compound 98] | 5.00 to 6.00 | 6.00 to 7.00 |
| O=C(NCC(O)CN1CCc2ccccc2C1)c1cccc(C2CCOCC2)c1 (stereo not drawn) [Compound 99] | 5.00 to 6.00 | > 7.00 |
| CC(=O)N1CCN(Cc2cccc(C(=O)NCC(O)CN3CCc4ccccc4C3)c2)CC1 (stereo not drawn) [Compound 100] | 5.00 to 6.00 | > 7.00 |
| CC(C)N1CCC(Nc2cccc(C(=O)NCC(O)CN3CCc4ccccc4C3)c2)C1 (stereo not drawn) [Compound 101] | 4.30 to 5.00 | > 7.00 |
| O=C(NCC(O)CN1CCc2ccccc2C1)c1cccc(NC2CCN(CC(F)(F)F)C2)c1 (stereo not drawn) [Compound 102] | 5.00 to 6.00 | > 7.00 |
| CC(C)N1CCC(Nc2cccc(C(=O)NCC(O)CN3CCc4ccccc4C3)c2)CC1 (stereo not drawn) [Compound 103] | 4.30 to 5.00 | > 7.00 |
| O=C(NCC(O)CN1CCc2ccccc2C1)c1ccc(OC2CCNCC2)cc1 (stereo not drawn) [Compound 104] | 5.00 to 6.00 | > 7.00 |
| CN1CCC(Oc2ccc(C(=O)NCC(O)CN3CCc4ccccc4C3)cc2)CC1 (stereo not drawn) [Compound 105] | 5.00 to 6.00 | > 7.00 |
| CC(C)N1CCC(Oc2ccc(C(=O)NCC(O)CN3CCc4ccccc4C3)cc2)CC1 (stereo not drawn) [Compound 106] | 6.00 to 7.00 | > 7.00 |
| CC(=O)N1CCC(Oc2ccc(C(=O)NCC(O)CN3CCc4ccccc4C3)cc2)CC1 (stereo not drawn) [Compound 107] | 6.00 to 7.00 | > 7.00 |
| CS(=O)(=O)N1CCC(Oc2ccc(C(=O)NCC(O)CN3CCc4ccccc4C3)cc2)CC1 (stereo not drawn) [Compound 108] | 6.00 to 7.00 | > 7.00 |
| O=C(NCC(O)CN1CCc2ccccc2C1)c1ccc(OC2CCN(CC(F)(F)F)CC2)cc1 (stereo not drawn) [Compound 109] | 6.00 to 7.00 | > 7.00 |
| O=C(NCC(O)CN1CCc2ccccc2C1)c1ccc(-n2cncn2)cc1 (stereo not drawn) [Compound 110] | 5.00 to 6.00 | > 7.00 |
| CN(C[C@H](O)CN1CCc2ccccc2C1)C(=O)c1cccc(NC2CCOCC2)c1 [Compound 111] | 5.00 to 6.00 | 6.00 to 7.00 |
| O=C(NCC(O)CN1CCc2ccccc2C1)c1cn[nH]c1-c1ccccc1 (stereo not drawn) [Compound 112] | < 4.70 | 5.00 to 6.00 |
| O=C(NCC(O)CN1CCc2ccccc2C1)c1cccc(CN2CCN(CCO)CC2)c1 (stereo not drawn) [Compound 113] | 4.30 to 5.00 | 6.00 to 7.00 |
| COCCN1CCN(Cc2cccc(C(=O)NCC(O)CN3CCc4ccccc4C3)c2)CC1 (stereo not drawn) [Compound 114] | 4.30 to 5.00 | 6.00 to 7.00 |
| CN1CCN(Cc2cccc(C(=O)NCC(O)CN3CCc4ccccc4C3)c2)C(CO)C1 (stereo not drawn) [Compound 115] | < 4.70 | 6.00 to 7.00 |
| NC(=O)CNCc1cccc(C(=O)NCC(O)CN2CCc3ccccc3C2)c1 (stereo not drawn) [Compound 116] | < 4.70 | 6.00 to 7.00 |
| CNC(=O)CNCc1cccc(C(=O)NCC(O)CN2CCc3ccccc3C2)c1 (stereo not drawn) [Compound 117] | < 4.70 | 6.00 to 7.00 |
